# Assay results reported in US6172038A, “Antipathogenic peptides and compositions comprising them” (priority 1996, dated 2001).
# System: human red blood cells (hRBC)
# Test: Hemolysis of human red blood cells
# Type: cell-based
# Conditions: not given
# Experimental: (ix) Hemolysis of human red blood cells. The peptides were tested for their hemolytic activities against human red blood cells (hRBC). Fresh hRBC with EDTA were rinsed 3 times with PBS (35 mM phosphate buffer/0.15 M NaCl, pH 7.3) by centrifugation for 10 min at 800 g and resuspended in PBS. Peptides dissolved in PBS were then added to 50 μL of a solution of the stock hRBC in PBS to reach a final volume of 100 μL (final erythrocyte concentration, 5% v/v). The resulting suspension was incubated under agitation for 30 min at 37° C. The samples were then centrifuged at 800 g for 10 min. Release of hemoglobin was monitored by measuring the absorbance of the supernatant at 540 nm. Controls for zero hemolysis (blank) and 100% hemolysis consisted of hRBC suspended in PBS and Triton 1%, respectively.
row,SMILES,hemolytic activity (in words)
1,CC(C)C[C@H](NC(=O)[C@H](CC(C)C)NC(=O)[C@@H](CC(C)C)NC(=O)[C@@H](CC(C)C)NC(=O)[C@H](CC(C)C)NC(=O)[C@@H](N)CCCCN)C(=O)N[C@@H](CCCCN)C(=O)N[C@H](CC(C)C)C(=O)N[C@@H](CC(C)C)C(=O)N[C@H](CC(C)C)C(=O)N[C@@H](CC(C)C)C(=O)N[C@@H](CCCCN)C(N)=O [Peptide 22],considerable hemolytic activity
2,CC(C)C[C@H](NC(=O)[C@H](CCCCN)NC(=O)[C@@H](CC(C)C)NC(=O)[C@@H](CC(C)C)NC(=O)[C@H](CC(C)C)NC(=O)[C@@H](N)CCCCN)C(=O)N[C@@H](CC(C)C)C(=O)N[C@H](CC(C)C)C(=O)N[C@@H](CCCCN)C(=O)N[C@H](CC(C)C)C(=O)N[C@@H](CC(C)C)C(=O)N[C@@H](CCCCN)C(N)=O [Peptide 23],devoid of hemolytic activity
3,CC(C)C[C@H](NC(=O)[C@H](CCCCN)NC(=O)[C@@H](CC(C)C)NC(=O)[C@@H](CC(C)C)NC(=O)[C@H](CC(C)C)NC(=O)[C@@H](N)CCCCN)C(=O)N[C@@H](CCCCN)C(=O)N[C@H](CC(C)C)C(=O)N[C@@H](CCCCN)C(=O)N[C@H](CC(C)C)C(=O)N[C@@H](CC(C)C)C(=O)N[C@@H](CCCCN)C(N)=O [Peptide 24],devoid of hemolytic activity

# Same assay, conditions: up to maximum concentration tested (50 μM)
row,SMILES,hemolytic activity (dose response)
1,CC[C@H](C)[C@H](NC(=O)[C@H](CCCCN)NC(=O)[C@H]1CCCN1C(=O)[C@@H](NC(=O)[C@H](CC(C)C)NC(=O)[C@H](C)NC(=O)[C@H](Cc1ccccc1)NC(=O)[C@H](Cc1ccccc1)NC(=O)CN)[C@@H](C)CC)C(=O)N[C@H](C(=O)N[C@@H](CO)C(=O)N[C@@H](CO)C(=O)N1CCC[C@H]1C(=O)N[C@@H](CC(C)C)C(=O)N[C@@H](Cc1ccccc1)C(=O)N[C@@H](CCCCN)C(=O)N[C@H](C(=O)N[C@H](CC(C)C)C(=O)N[C@H](CC(C)C)C(=O)N[C@@H](CO)C(=O)N[C@@H](C)C(=O)N[C@H](C(=O)NCC(=O)N[C@@H](CO)C(=O)N[C@@H](C)C(=O)N[C@@H](CC(C)C)C(=O)N[C@@H](CO)C(=O)N[C@@H](CO)C(=O)N[C@@H](CO)C(=O)NCC(=O)NCC(=O)N[C@@H](CCC(N)=O)C(=O)N[C@@H](CCC(=O)NCCN)C(=O)NCCN)C(C)C)[C@@H](C)O)[C@@H](C)CC [Peptide 1],practically devoid of hemolytic activity
2,"CC[C@H](C)[C@H](NC(=O)[C@H](CCCCN)NC(=O)[C@@H]1CCCN1C(=O)[C@@H](NC(=O)[C@H](CC(C)C)NC(=O)[C@H](C)NC(=O)[C@H](Cc1ccccc1)NC(=O)[C@H](Cc1ccccc1)NC(=O)CN)[C@@H](C)CC)C(=O)N[C@H](C(=O)N[C@@H](CO)C(=O)N[C@@H](CO)C(=O)N1CCC[C@H]1C(=O)N[C@@H](CC(C)C)C(=O)N[C@@H](Cc1ccccc1)C(=O)N[C@@H](CCCCN)C(=O)N[C@H](C(=O)N[C@@H](CC(C)C)C(=O)N[C@@H](CC(C)C)C(=O)N[C@@H](CO)C(=O)N[C@@H](C)C(=O)N[C@H](C(=O)NCC(=O)N[C@@H](CO)C(=O)N[C@@H](C)C(=O)N[C@@H](CC(C)C)C(=O)N[C@@H](CO)C(=O)N[C@@H](CO)C(=O)N[C@@H](CO)C(=O)NCC(=O)NCC(=O)N[C@@H](CCC(N)=O)C(=O)N[C@@H](CCC(=O)NCCN)C(=O)NCCN)C(C)C)[C@@H](C)O)[C@@H](C)CC [Peptide 8, TApar]",the most hemolytic
3,CC[C@@H](C)[C@@H](NC(=O)[C@H](CC(C)C)NC(=O)[C@H](C)NC(=O)[C@@H]1CCCN1C(=O)[C@H](CC(C)C)NC(=O)CNC(=O)[C@@H](NC(=O)[C@@H](NC(=O)[C@H](CC(C)C)NC(=O)[C@H](NC(=O)[C@H](CCCCN)NC(=O)[C@H](CC(C)C)NC(=O)[C@H](NC(=O)[C@H](C)NC(=O)CNC(=O)[C@@H](NC(=O)CN)[C@@H](C)CC)C(C)C)C(C)C)[C@@H](C)O)[C@@H](C)O)C(=O)N[C@@H](CO)C(=O)N[C@@H](Cc1c[nH]c2ccccc12)C(=O)N[C@H](C(=O)N[C@H](CCCCN)C(=O)N[C@@H](CCCNC(=N)N)C(=O)N[C@@H](CCCCN)C(=O)N[C@@H](CCCNC(=N)N)C(=O)N[C@@H](CCC(N)=O)C(=O)N[C@@H](CCC(N)=O)C(=O)O)[C@@H](C)CC [Peptide 19],practically devoid of hemolytic activity
